The text below walks through data of patent US8168199B2, “Dipeptidyl peptidase IV inhibitors for the treatment of schizophrenia and depression” (priority 2000, dated 2012).

For one data set, the system named is rats. The settings on record: administered into the dorsal periaqueductal gray matter; cited from earlier work.
For data set [1] the following is noted: i.c.v. injection; cited from earlier work.
For data set [2], the system named is Male WistarF/Han (WF) rats. Nature of the data set: Social interaction (SI) test with Y1R antagonist BIBP3226, P32/98 and NPY (Example 4). It counts as in vivo, rat. As to the method:
(§1) Animals. Male WistarF/Han (WF) rats (Central Animal Laboratory, Hannover Medical School, Hannover, Germany, weighing 330±31 g±SD, were housed in a sound-proof, temperature controlled (24.0±0.5° C.) room under specific pathogen free conditions with a 12/12 h dark/light cycle (lights on at 07.00 with illumination level of 80 Lux). Food (Altromin lab chow pellets) and tap water were available ad libitum. Under ketamine/xylasine (100/5 mg/kg, i.p.) anesthesia, the rats were fixed in a Kopf stereotaxic frame and implanted with cannulae (Plastic One, Inc., Roanoke, Va., USA) above the lateral ventricle. All research and animal care procedures were approved by the Lower Saxony district government (Hannover, Germany) and followed principles described in the European Community's Council Directive of 24 Nov. 1986 (86/609/EEC).
(§2) Surgery and i.c.v. application. […]
(§3) Animals were randomly divided into eight experimental groups (n=6-8/group), which completed one SI test of anxiety: (1) aCSF+aCSF+aCSF; (2) BIBP+aCSF+aCSF; (3) aCSF+P32/98+aCSF; (4) BIBP+P32/98+aCSF; (5) aCSF+aCSF+NPY; (6) BIBP+aCSF+NPY; (7) aCSF+[…]+NPY; (8) BIBP+P32/98+NPY. […] The time spent in active social interaction (SI-time), 1 h, and 12 h food-intake were measured. […]
Social interaction (SI) test. […] Behavior was monitored using a video camera placed above the field inside the testing/isolation box. The SI behavior of both rats was recorded on-line from a monitor placed outside on top of the box. The following parameters were scored by an observer (HPN) unaware of the substrain of rats: duration of time spent in sniffing, following, crawling under and over other rats, but not passive body contact (resting, sleeping). […]
(§4) Statistical analysis. Data obtained from the measures SI time and 1 h food intake were analyzed by one-way (factor: “treatment”) ANOVA. […]

Data set [3] concerns Male WistarF/Han (WF) rats. Nature of the data set: 1 h food-intake with Y1R antagonist BIBP3226, P32/98 and NPY (Example 4). It counts as in vivo, rat. Conditions: i.c.v. BIBP3226 100 nmol. As to the method: as §1, §2, §3, §4
The target of a further data set is T1, dipeptidyl peptidase IV (Homo sapiens, UniProt P27487).
T1 construct: from tissue; host or cells: human serum
T1 sequence (P27487 39-766 limits assumed): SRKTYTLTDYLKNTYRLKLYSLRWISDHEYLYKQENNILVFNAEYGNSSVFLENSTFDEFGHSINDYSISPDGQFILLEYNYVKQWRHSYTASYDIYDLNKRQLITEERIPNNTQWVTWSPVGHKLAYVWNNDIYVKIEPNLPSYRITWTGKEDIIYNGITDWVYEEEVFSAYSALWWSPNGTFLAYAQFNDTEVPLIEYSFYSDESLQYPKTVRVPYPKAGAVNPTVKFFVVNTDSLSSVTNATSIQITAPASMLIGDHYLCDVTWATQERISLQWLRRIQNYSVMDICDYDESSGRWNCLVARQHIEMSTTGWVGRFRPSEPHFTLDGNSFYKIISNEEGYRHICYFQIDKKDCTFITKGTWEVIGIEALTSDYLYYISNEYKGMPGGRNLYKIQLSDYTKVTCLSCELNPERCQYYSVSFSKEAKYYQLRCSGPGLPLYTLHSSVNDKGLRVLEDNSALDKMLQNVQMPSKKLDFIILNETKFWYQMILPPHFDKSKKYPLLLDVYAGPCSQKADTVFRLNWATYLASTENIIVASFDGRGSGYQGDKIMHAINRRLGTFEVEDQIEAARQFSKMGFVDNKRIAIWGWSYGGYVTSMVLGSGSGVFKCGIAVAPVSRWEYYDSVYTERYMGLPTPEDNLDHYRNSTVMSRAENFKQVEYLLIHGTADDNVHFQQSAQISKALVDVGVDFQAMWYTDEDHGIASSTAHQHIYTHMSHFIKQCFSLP
Conditions: human serum incubated with neuropeptide Y or peptide YY; cited from earlier work.

In data set [4] the test system is Male WistarF/Han (WF) rats. Description: 1 h and 12 h food-intake after i.c.v. P32/98 and NPY (Example 3). The settings on record: i.c.v. P32/98 5 pmol-500 nmol, NPY 50 pmol-1.6 nmol; dark cycle. It counts as in vivo, rat. The protocol: as §1, with “330-370 g,” for “330±31 g±SD,”
Surgery and i.c.v. application. For surgery, rats were anesthetized and prepared with i.c.v. cannulae (coordinates: A: −0.7 mm caudal, L: 1.4 mm lateral to bregma; and V3.2 mm ventral to the skull surface; tooth bar +3.0 above ear bars) using standard stereotaxic procedures as described in detail elsewhere (von Hörsten et al., 1998a, b, c). After a 7-day recovery period, successful ventricle cannulation was confirmed by an angiotensin drinking response (von Hörsten et al., 1998a). Rats showing a positive drinking response (n=59) were then habituated to experimental handling by daily sham injections for seven days.
Animals were randomly divided into two sets of four experimental groups (n=5-6/group), which completed different consecutive SI test of anxiety. […] The time spent in active social interaction (SI-time), 1 h and 12 h food-intake were measured. […]
Statistical analysis. Data from repeated observations (food intake) were analyzed by two-way analyses of variance for repeated measures (ANOVA) (factors: “substrain” and “food intake” as repeated measure). Data obtained from simple measures such as DPIV activity or SI time were analyzed by one-way (factor: “substrain”) ANOVA. […]

In the case of `NC(N)=NCCC[C@@H](NC(=O)C(c1ccccc1)c1ccccc1)C(=O)NCc1ccc(O)cc1` [BIBP3226], in the data set with rats, the “time spent in active social interaction” value was “decreased”. Besides, in data set [1], the “anxiety-related behavior in the elevated plus-maze test” value was “anxiogenic-like effects” and the “locomotor effect in the elevated plus-maze test” value is “without any locomotor deficit”. Further, the “effect of Y1 receptor antagonist pre-treatment on P32/98-induced potentiation of NPY anxiolysis (SI behavior)” value in data set [2] (i.c.v. BIBP3226 100 nmol, P32/98 50 nmol, NPY 0.8 nmol) was “can block”. Also, the “effect of Y1 R blockade on 1 h feeding effects” value in data set [3] is on record as “only partly affected”.

`NCCCC[C@H](N)C(=O)N1CCCC1` [Lys-pyrrolidine]: the “formation of Tyr-Pro in serum” value at dipeptidyl peptidase IV was “blocked”.

As for Ile-Pro-Ile [diprotin A], on dipeptidyl peptidase IV, the “formation of Tyr-Pro in serum” value is recorded as “blocked”.

“Rat neuropeptide Y1-36 [NPY, reference compound]”: in data set [4], the “amount of food eaten within 1 h” value was ““u-shaped” dose-dependent feeding effect”. Moreover, the “SI-time, NPY alone” value in data set [2] (i.c.v. 0.8 nmol) was “anxiolytic-like effect”.
